Conditions: a range is the spread between reports

Structure (SMILES) | melting point [°C]
Nc1cccc(C(F)(F)F)c1 | 5.5 to 6
CC(C)c1ccc(Cl)cc1 | -12.3 to -12
NCCN1CCOCC1 | 24 to 25.6
CCC#CC(C)C | -117
O=[N+]([O-])c1cc(Cl)ccc1O | 87 to 89
O=C(O)Cc1cccc(Cl)c1 | 78 to 79
O=C(CCl)c1ccc(Cl)cc1 | 101 to 102
COc1ccc(N)c([N+](=O)[O-])c1 | 124 to 127
O=P(O)(c1ccccc1)c1ccccc1 | 194 to 195
CCCCCCCCCCCCCCCCCCCCCCCCCCCCCCCC | 69.7 to 70
COC(=O)c1ccccc1O | -9 to -7
Cn1c2ccccc2c2ccccc21 | 89.3 to 91
COc1ccccc1N | 5 to 6.2
N=C(Nc1ccccc1)Nc1ccccc1 | 149 to 150
OC1(c2ccccc2)CCCCC1 | 60 to 63.5
Cc1ccc(C(=O)O)cc1C | 165 to 166
CCc1ccccc1N | -47 to -44
O=C(c1ccccc1)c1ccc([N+](=O)[O-])cc1 | 137 to 138
COc1ccc2c(c1)CCCC2=O | 78 to 79
c1ccc2c(c1)sc1ccccc12 | 97 to 99
CCCCCCCCCCCCCCCCCC(=O)O | 68 to 71
N#Cc1ccc(O)cc1 | 112
O=[N+]([O-])c1cc(I)c(O)c(I)c1 | 153 to 157
O=C(Cl)c1cc(C(=O)Cl)cc(C(=O)Cl)c1 | 36 to 36.3
c1ccc(P(c2ccccc2)c2ccccc2)cc1 | 80 to 80.5

Structure (SMILES) | melting point [°C]
N#CCCCl | -51 to -50
ClC(Cl)C(Cl)(Cl)Cl | -29 to -28.8
O=C(O)Cc1c(Cl)cccc1Cl | 159 to 160
Clc1ccc(C(c2ccc(Cl)cc2)C(Cl)(Cl)Cl)cc1 | 108 to 110
O=[N+]([O-])c1cc([N+](=O)[O-])c(F)cc1F | 73 to 74
O=C1C(O)=C(Cl)C(=O)C(O)=C1Cl | 283 to 284
COc1ccc(C=CC(=O)c2ccccc2)cc1 | 75 to 79
S=C=S | -112
Cc1ccccc1Br | -28 to -27
CCC(C)=O | -87 to -86
Cc1ccc(N)c(N)c1 | 88 to 89.5
CC(=O)c1cccnc1 | 12 to 13.5
CCc1ccc2ccccc2c1 | -7.45 to -7.35
CCOP(=O)(OCC)OCC | -56.4 to -56
O=C(O)C(F)(F)Cl | 22 to 25
O=[N+]([O-])c1cccc2cnccc12 | 108 to 110
CC(C)(C)C(C)(C)C | 101
CCCCCc1ccc(O)cc1 | 23 to 24
CC1(C)CC=CCC1 | -74.4 to -74
Cc1ccc(C)cc1 | 12 to 13.2
CCCCCCC(C)=O | -21 to -16
CCCCCCC(=O)Cl | -84 to -83.8
CC(C)C(Br)C(=O)O (stereo not given) | 39 to 44
O=C(O)c1cc([N+](=O)[O-])cc([N+](=O)[O-])c1O | 170 to 171
c1ccc(OCC2CO2)cc1 (stereo not given) | 3.5 to 4

Structure (SMILES) | melting point [°C]
C=CC=O | -87.7 to -87
COC(=O)c1cc(Cl)ccc1N | 67 to 69
C=CCI | -99.3 to -99
Cc1cc(Cl)nc(Cl)n1 | 46 to 46.5
O=C(O)C(O)c1ccc(Br)cc1 (stereo not given) | 117 to 118
Cc1ccc2ccccc2c1 | 33 to 34.4
O=C(O)COc1ccc(Cl)cc1 | 159 to 164
OCCOc1ccccc1 | 12 to 14
Nc1ccc2ccccc2c1 | 112 to 113
Cc1cc(O)ccc1Cl | 66 to 67
CC(C)N(CCC(C(N)=O)(c1ccccc1)c1ccccn1)C(C)C (stereo not given) | 94.8
N#CCc1ccc(Br)cc1 | 47 to 48
CCC(C)(C)C(C)C | -101
CC(C)[N+](=O)[O-] | -93 to -91.3
O=S(=O)(F)F | -136
CCCCCC(=O)OC(=O)CCCCC | -41 to -40
S=c1nc[nH]c2nc[nH]c12 | 313 to 314
C=CCc1ccccc1OCC(O)CNC(C)C (stereo not given) | 108 to 109
O=[N+]([O-])c1ccccc1CO | 72 to 74
CC1=CC(=O)c2ccccc2C1=O | 102 to 107
N#CCCC(Br)(C#N)CBr (stereo not given) | 50 to 52
O=C1OC(=O)C2C1C1(Cl)C(Cl)=C(Cl)C2(Cl)C1(Cl)Cl (stereo not given) | 233 to 237
OCC(Br)(Br)Br | 79 to 81
Nc1ccc(Br)cc1 | 63 to 66.4
c1c[nH]nn1 | 23 to 24

Structure (SMILES) | melting point [°C]
CC(=O)c1ccc(Br)cc1 | 50.5 to 51
O=Cc1cc(Br)c(O)c(Br)c1 | 181 to 182
O=C(Cl)c1ccco1 | -2 to -1
CCS | -148
Cc1ccc(C)c(C)c1 | -44 to -43.8
Cc1cc(Cl)ccc1OC(C)C(=O)O (stereo not given) | 94 to 95
NC(=O)c1cc([N+](=O)[O-])cc([N+](=O)[O-])c1 | 182 to 184
ClCCCl | -36 to -35
CC(=O)OCCCCOC(C)=O | 12 to 13
CC(C)(C)OOC(=O)c1ccccc1 | 7 to 8
CCc1ccc(O)cc1O | 97 to 98.5
CCc1cccc(CC)c1 | -84 to -83.9
CC(=O)/C=C/c1ccccc1 | 40 to 42
NNC=O | 55 to 57
NC(=O)NO | 141 to 144
COc1cccc(C(C)=O)c1 | -8 to -7
O=Cc1ccccc1[N+](=O)[O-] | 43.5 to 46
Oc1ccc(-c2ccc(O)cc2)cc1 | 278 to 283
O=C(c1ccc(O)cc1O)c1ccc(O)cc1O | 201 to 202
O=C1CCCCC1c1ccccc1 (stereo not given) | 57 to 58
N#CCc1ccccc1C(F)(F)F | 30 to 33
O=C(Cl)CCC(=O)Cl | 17 to 20
Clc1ccc(C(c2ccc(Cl)cc2)C(Cl)Cl)cc1 | 109 to 110

Second part, the compound after the results:

melting point [°C] | Structure (SMILES)
-2.2 to -2 | CC#CCO
-64 to -63.7 | Cc1cccc(C(C)C)c1
170 | Cc1cc(C(=O)O)ccc1N
-17.9 to -15 | CCCCCCCCCC#N
30 to 33 | O=C1c2ccccc2CCc2ccccc21
183 to 185 | Cc1cc(N)nc(C)n1
182 to 183 | CC(=O)NS(=O)(=O)c1ccc(N)cc1
-111 | CCC(S)CC
128 to 130 | O=[N+]([O-])c1ccc(C=NO)cc1
207 to 208 | O=C(O)c1ccc(Cl)c(Cl)c1
-71 to -70.9 | CCc1ccc(C)nc1
11 to 12 | CC/C=C/CC(=O)O
67 to 68.5 | O=C(c1ccccc1)C(Cl)c1ccccc1 (stereo not given)
192 to 194 | O=C(O)c1cc2ccccc2o1
-65.9 to -65 | CC(C)C=O
-15.2 to -15 | Cc1ccc(Cl)c(Cl)c1
65 to 68 | CCCCCCc1ccc(O)cc1O
132 to 134 | Cc1ccc(C)c(C(=O)O)c1
55 to 57 | CCCCCCCCCCCCCCCCCC(=O)OC[C@@H](O)[C@H]1OC[C@H](O)[C@H]1O
-48 to -47.5 | C=C(C)C(=O)OC
202 to 203 | O=C(O)c1cccc(O)c1
146 to 149 | O=C(O)Cc1ccccc1O
11 to 12.4 | CCOc1cccc(OCC)c1
95 to 97 | ClCC(CCl)(CCl)CCl

melting point [°C] | Structure (SMILES)
12 to 12.5 | Cc1ccc(CN)cc1
-28 to -27 | CCCOc1ccccc1
76 to 76.5 | CCCCCCCCCCCCCCCCCCCCCCCCCCCCCCCCCCCC
85 to 86 | CC(=O)CC(=O)Nc1ccccc1
45.7 to 49 | Cc1cccc(C)c1O
138 to 142 | C(=Nc1ccccc1)Nc1ccccc1
42 to 45 | OCCCCCCO
18 to 18.5 | CS(C)=O
130 to 132 | O=C(O)CC(O)C(=O)O (stereo not given)
68 to 69 | C=CS(=O)(=O)c1ccccc1
18 to 22.5 | OCCCCCCCO
-36 to -35 | Cc1ccccc1Cl
147 to 148 | CCCCOc1ccc(C(=O)O)cc1
19 to 20 | COc1ccc(OC)c(C(C)=O)c1
73 to 74 | Cc1cc(Br)c(C)cc1Br
96.5 to 97 | CCCCCCCCCCCCOC(=O)c1cc(O)c(O)c(O)c1
58 to 60 | Clc1cccc(Br)c1Cl
30 to 31 | N#Cc1c(F)cccc1F
100 to 101 | CCOC(=O)c1ccc([N+](=O)[O-])o1
-99 to -98.8 | CC(=O)OCC(C)C
153 to 155 | Oc1ccc(Sc2ccc(O)cc2)cc1
233 to 234 | CCc1nc(N)nc(N)c1-c1ccc(Cl)cc1
42 to 43 | O=C(CC(=O)C(F)(F)F)c1cccs1
113 to 114 | CC(Oc1ccccc1Cl)C(=O)O (stereo not given)

melting point [°C] | Structure (SMILES)
195 to 196 | COc1cc(C(=O)O)cc(O)c1OC
6 to 6.5 | CC(C)(C)CC(=O)O
155 to 157 | O=C1c2ccccc2Cc2ccccc21
2 to 2.4 | N#Cc1c(F)c(F)c(F)c(F)c1F
-2 to -0.8 | Nc1ccc(F)cc1
128 to 129 | O=C(O)Cc1ccc(O)c(O)c1
30 to 31.9 | COC(=O)CCCCCCCCCCC(=O)OC
27 to 29 | Brc1cc(Br)c(Br)s1
76 to 76.5 | Cc1ccc(N)nc1
12 to 13.5 | CCCCCCCCCCCCCCCC(=O)OC(C)C
76 to 79 | CCN1C(=O)c2ccccc2C1=O
88 to 90.5 | CC(=O)NO
59 to 64 | Cc1cc(O)ccc1Br
-9 to -6.6 | Cc1cncc(C)c1
102 to 104 | COC(=O)/C=C/C(=O)OC
-67 to -66.9 | CCc1ccc(C)c(C)c1
126 to 129 | COc1cc(C=CC(=O)c2ccccc2O)ccc1O
220 to 224 | Oc1ccc2cc(O)ccc2c1
110 to 111 | Oc1cccc(O)c1
58 to 61 | CCCCCCCCCCCCCCCCCCO
55 to 57 | COc1ccc(O)cc1
21 to 22 | Clc1ccc(Cl)c(I)c1
79 to 81 | Cc1cc(N)ccc1Br
34.5 to 35 | O=CC1CCCCC1
